This assay concerns the target T1, human RORgT (Homo sapiens, UniProt P51449).
T1 construct: expressed in transfected cells
T1 sequence (P51449 267-516): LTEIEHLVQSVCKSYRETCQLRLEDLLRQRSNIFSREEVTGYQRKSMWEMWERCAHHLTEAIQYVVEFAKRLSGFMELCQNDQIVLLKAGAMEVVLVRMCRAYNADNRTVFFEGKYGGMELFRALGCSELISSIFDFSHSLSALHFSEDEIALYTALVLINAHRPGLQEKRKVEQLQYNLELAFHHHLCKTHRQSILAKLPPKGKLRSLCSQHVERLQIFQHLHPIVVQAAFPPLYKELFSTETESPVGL
Description: RORgT Gal4 Luciferase Reporter Gene Assay. Particulars: engineered Jurkat cells overexpressing RORgT (LBD or full length) fused with Gal4 Luc reporter; 18 hours at 37° C.; luminescence. It is filed as cell-based. As for the experimental part:
RORgT Gal4 Luciferase Reporter Gene Assay
25 µL of cryopreserved Jurkat cells over expressing ligand binding domain (LBD) of RORgT (aa267-516, NM_005060) and Gal4 Luc, or full length of human RORgT and Gal4 Luc, were plated in 384-well solid white cell culture plates (PerkinElmer 6007899), with a density of 10,000 cells/well in RPMI 1640 cell culture media (Gibco 11875-085). The media contained 0.1% BSA, 10 mM HEPES (Gibco 15360-080), […] Sodium Pyruvate (Gibco 11360-040), […] Hygromycin B (Invitrogen 10687-010), and […] Blasticidin (Invitrogen R210-01).
100 nL of compound at varying concentrations in 3-fold serial dilution, with final concentrations ranging from 40 µM to 0.67 nM, were added to the cells using Labcyte Echo 550. The compound and the cells were incubated for 18 hours at 37° C. in a cell culture incubator. Cells were then lysed with 15 uL of Steady-Glo Luciferase Assay reagent (Promega EZ550), followed by centrifuging the assay plates at 1500 RPM for 1 minute. Subsequently, the plates were read on the Envision (PerkinElmer). The inhibition of constitutive activity of RORgT achieved by graded concentrations of compound was calculated as a percentage of the luminescence signal window reduction over a control compound.
`C[C@@H]1C[C@@H](C(=O)O)CC[C@@H]1C(=O)N1CC[C@@]2(S(=O)(=O)c3ccc(F)cc3)c3ccc(OCc4c(F)cccc4C(F)(F)F)cc3CC[C@@H]12` [Example 26, (1S,3R,4S)-4-[(3aR,9bR)-7-{[2-fluoro-6-(trifluoromethyl)phenyl]methoxy}-9b-(4-fluorobenzenesulfonyl)-1H,2H,3H,3aH,4H,5H,9bH-benzo[e]indole-3-carbonyl]-3-methylcyclohexane-1-carboxylic acid] returned an EC50 of 27 nM.

Turning to `O=C(O)[C@H]1CC[C@](O)(C(=O)N2CC[C@@]3(S(=O)(=O)c4ccc(F)cc4)c4ccc(OCc5c(F)cccc5C(F)(F)F)cc4CC[C@@H]23)CC1` [Example 27, (1 s,4 s)-4-[(3aR,9bR)-7-{ [2-fluoro-6-(trifluoromethyl)phenyl]methoxy} -9b-(4-fluorobenzenesulfonyl)-1H,2H,3H,3aH,4H,5H,9bH-benzo[e]indole-3-carbonyl] -4-hydroxycyclohexane-1-carboxylic acid], the concentration giving a half-maximal response (EC50) amounted to 99 nM. `O=C1CC[C@@H](C(=O)N2CC[C@@]3(S(=O)(=O)c4ccc(F)cc4)c4ccc(OCc5c(F)cccc5C(F)(F)F)cc4CC[C@@H]23)N1Cc1ccc(F)cc1` [Example 28, (5S)-5-[(3aR,9bR)-7-{[2-fluoro-6-(trifluoromethyl)phenyl]methoxy} -9b-(4-fluorobenzenesulfonyl)-1H,2H,3H,3aH,4H,5H,9bH-benzo[e]indole-3-carbonyl]-1-[(4-fluorophenyl)methyl]pyrrolidin-2-one] had an EC50 of 8.2 nM. For `CC(C#N)CN1C(=O)CC[C@H]1C(=O)N1CC[C@@]2(S(=O)(=O)c3ccc(F)cc3)c3ccc(OCc4c(F)cccc4C(F)(F)F)cc3CC[C@@H]12` (stereo partly drawn) [Example 29, 3-[(2S)-2-[(3aR,9bR)-7-{[2-fluoro-6-(trifluoromethyl)phenyl]methoxy} -9b-(4-fluorobenzenesulfonyl)-1H,2H,3H,3aH,4H,5H9bH-benzo[e]indole-3-carbonyl]-5-oxopyrrolidin-1-yl]-2-methylpropanenitrile], the midpoint of the response, the EC50, lay at 3.6 nM. For `CN1C[C@@H](C(=O)N2CC[C@@]3(S(=O)(=O)c4ccc(F)cc4)c4ccc(OCc5c(F)cccc5C(F)(F)F)cc4CC[C@@H]23)NC1=O` [Example 30, (4S)-4-[(3aR,9bR)-7-{[2-fluoro-6-(trifluoromethyl)phenyl]methoxy} -9b-(4-fluorobenzenesulfonyl)-1H,2H,3H,3aH,4H,5H,9bH-benzo[e]indole-3-carbonyl]-1-methylimidazolidin-2-one], a half-maximal response (EC50) required 3.9 nM. In the case of `O=C(C1CCS(=O)(=O)CC1)N1CC[C@@]2(S(=O)(=O)c3ccc(F)cc3)c3ccc(Cc4ccccc4)cc3CC[C@@H]12` [Example 31, 4-[(3aR,9bR)-7-benzyl-9b-(4-fluorobenzenesulfonyl)-1H,2H,3H,3aH,4H,5H,9bH-benzo[e]indole-3-carbonyl]-1λ^6-thiane-1,1-dione] it was 1.6 nM; in that of `O=C(C1CCS(=O)(=O)CC1)N1CC[C@@]2(S(=O)(=O)c3ccc(F)cc3)c3ccc(Cc4c(F)cccc4Cl)cc3CC[C@@H]12` [Example 32, 4-[(3aR,9bR)-7-[(2-chloro-6-fluorophenyl)methyl]-9b-(4-fluorobenzenesulfonyl)-1H,2H,3H,3aH,4H,5H,9bH-benzo[e]indole-3-carbonyl]-1λ^6-thiane-1,1-dione], 1.8 nM; in that of `O=C(C1CCS(=O)(=O)CC1)N1CC[C@@]2(S(=O)(=O)c3ccc(F)cc3)c3ccc(COc4c(F)cccc4Cl)cc3CC[C@@H]12` [Example 33, 4-[(3aR,9bR)-7-[(2-chloro-6-fluorophenoxy)methyl]-9b-(4-fluorobenzenesulfonyl)-1H,2H,3H,3aH,4H,5H,9bH-benzo[e]indole-3-carbonyl]-1λ^6-thiane-1,1-dione], 10 nM. Turning to `O=C(O)[C@H]1CC[C@H](C(=O)N2CC[C@@]3(S(=O)(=O)c4ccc(F)cc4)c4ccc(Cc5ccccc5)cc4CC[C@@H]23)CC1` [Example 34, (1r,4r)-4-[(3aR,9bR)-7-benzyl-9b-(4-fluorobenzenesulfonyl)-1H,2H,3H,3aH,4H,5H,9bH-benzo[e]indole-3-carbonyl]cyclohexane-1-carboxylic acid], the response was half-maximal at 10 nM (EC50). For `O=C(C1CCS(=O)(=O)CC1)N1CC[C@@]2(S(=O)(=O)c3ccc(F)cc3)c3ccc(Oc4ccccc4)cc3CC[C@@H]12` [Example 36], the EC50 was 4.1 nM. In the case of `O=C(O)[C@H]1CC[C@H](C(=O)N2CC[C@@]3(S(=O)(=O)c4ccc(F)cc4)c4ccc(Oc5c(F)cccc5Cl)cc4CC[C@@H]23)CC1` [Example 37, (1r,4r)-4-[(3aR,9bR)-7-(2-chloro-6-fluorophenoxy)-9b-(4-fluorobenzenesulfonyl)-1H,2H,3H,3aH,4H,5H,9bH-benzo[e]indole-3-carbonyl]cyclohexane-1-carboxylic acid] it was 3.3 nM; in that of `O=C(C1CCS(=O)(=O)CC1)N1CC[C@@]2(S(=O)(=O)c3ccc(F)cc3)c3ccc(Oc4c(F)cccc4Cl)cc3CC[C@@H]12` [Example 38, 4-[(3aR,9bR)-7-(2-chloro-6-fluorophenoxy)-9b-(4-fluorobenzenesulfonyl)-1H,2H,3H,3aH,4H,5H,9bH-benzo[e]indole-3-carbonyl]-1λ^6-thiane-1,1-dione], 1.1 nM. In the case of `O=C(C1CCS(=O)(=O)CC1)N1CC[C@@]2(S(=O)(=O)c3ccc(F)cc3)c3ccc(Oc4c(F)cccc4C(F)(F)F)cc3CC[C@@H]12` [Example 39, 4-[(3aR,9bR)-7-[2-fluoro-6-(trifluoromethyl)phenoxy]-9b-(4-fluorobenzenesulfonyl)-1H,2H,3H,3aH,4H,5H,9bH-benzo[e]indole-3-carbonyl]-1λ^6-thiane-1,1-dione] it was 2.7 nM; in that of `O=C(O)[C@H]1CC[C@H](C(=O)N2CC[C@@]3(S(=O)(=O)c4ccc(F)cc4)c4ccc(Cc5ccc(F)cc5)cc4CC[C@@H]23)CC1` [Example 40, (1r,4r)-4-[(3aR,9bR)-9b-(4-fluorobenzenesulfonyl)-7-[(4-fluorophenyl)methyl]-1H,2H,3H,3aH,4H,5H,9bH-benzo[e]indole-3-carbonyl]cyclohexane-1-carboxylic acid], 5.2 nM; in that of `O=C(C1CCS(=O)(=O)CC1)N1CC[C@@]2(S(=O)(=O)c3ccc(F)cc3)c3ccc(Cc4ccc(F)cc4)cc3CC[C@@H]12` [Example 41, 4-[(3aR,9bR)-9b-(4-fluorobenzenesulfonyl)-7-[(4-fluorophenyl)methyl]-1H,2H,3H,3aH,4H,5H,9bH-benzo[e]indole-3-carbonyl]-1λ^6-thiane-1,1-dione], 1.2 nM. In the case of `O=C(C1CCS(=O)(=O)CC1)N1CC[C@@]2(S(=O)(=O)c3ccc(F)cc3)c3ccc(Cc4ccc(Cl)cc4)cc3CC[C@@H]12` [Example 42, 4-[(3aR,9bR)-7-[(4-chlorophenyl)methyl]-9b-(4-fluorobenzenesulfonyl)-1H,2H,3H,3aH,4H,5H,9bH-benzo[e]indole-3-carbonyl]-1λ^6-thiane-1,1-dione] it was 1.8 nM. With `Cc1ccccc1Cc1ccc2c(c1)CC[C@H]1N(C(=O)[C@H]3CC[C@H](C(=O)O)CC3)CC[C@@]21S(=O)(=O)c1ccc(F)cc1` [Example 43, (1r,4r)-4-[(3aR,9bR)-9b-(4-fluorobenzenesulfonyl)-7-[(2-methylphenyl)methyl]-1H,2H,3H,3aH,4H,5H,9bH-benzo[e]indole-3-carbonyl]cyclohexane-1-carboxylic acid], the midpoint of the response, the EC50, lay at 2.7 nM. The result for `Cc1ccccc1Cc1ccc2c(c1)CC[C@H]1N(C(=O)C3CCS(=O)(=O)CC3)CC[C@@]21S(=O)(=O)c1ccc(F)cc1` [Example 44, 4-[(3aR,9bR)-9b-(4-fluorobenzenesulfonyl)-7-[(2-methylphenyl)methyl]-1H,2H,3H,3aH,4H,5H,9bH-benzo[e]indole-3-carbonyl]-1λ^6-thiane-1,1-dione] reads 1.9 nM; that for `CC1(CN2CC[C@@]3(S(=O)(=O)c4ccc(F)cc4)c4ccc(OCc5c(F)cccc5C(F)(F)F)cc4CC[C@@H]23)CCNCC1` [Example 45, 4-{ [(3aR,9bR)-7-{ [2-fluoro-6-(trifluoromethyl)phenyl]methoxy} -9b-(4-fluorobenzenesulfonyl)-1H,2H,3H,3aH,4H,5H,9bH-benzo[e]indol-3-yl]methyl}-4-methylpiperidine], 306 nM; that for `Cc1ccccc1Cc1ccc2c(c1)CC[C@H]1N(C(=O)C3(C)CCS(=O)(=O)CC3)CC[C@@]21S(=O)(=O)c1ccc(F)cc1` [Example 46, 4-[(3aR,9bR)-9b-(4-fluorobenzenesulfonyl)-7-[(2-methylphenyl)methyl]-1H,2H,3H,3aH,4H,5H,9bH-benzo[e]indole-3-carbonyl]-4-methyl-1λ^6-thiane-1,1-dione], 2.7 nM. For `Cc1ccccc1Cc1ccc2c(c1)CC[C@H]1N(C(=O)CC3CCS(=O)(=O)C3)CC[C@@]21S(=O)(=O)c1ccc(F)cc1` (stereo partly drawn) [Example 47, 3-{2-[(3aR,9bR)-9b-(4-fluorobenzenesulfonyl)-7-[(2-methylphenyl)methyl]-1H,2H,3H,3aH,4H,5H,9bH-benzo[e]indol-3-yl]-2-oxoethyl}-1λ^6-thiolane-1,1-dione], the EC50 amounted to 4.4 nM.

The values are drawn from US20230295087A1, “AGONISTS OF ROR GAMMAt” (BRISTOL-MYERS SQUIBB COMPANY, priority 2019, published 2023).
